The source of these data is patent publication US7968563B2, “Oxime and hydroxylamine substituted imidazo[4,5-c] ring compounds and methods” (3M Innovative Properties Company, priority 2005, dated 2011).

Where a name gives a salt, the structure may show the parent alone.

For the molecule `CON=C(C)CCc1nc2c(N)nc3ccccc3c2n1CC(C)(C)O` [Example 5, 4-[4-Amino-1-(2-hydroxy-2-methylpropyl)-1H-imidazo[4,5-c]quinolin-2-yl]butan-2-one O-methyloxime], the melting point (usually the temperature of the solid-liquid transition) lay in the range of 182 to 184 °C.
As for `CON(C)Cc1nc2cnc3ccccc3c2n1CC1CCOCC1` [Example 18, 2-{[Methoxy(methyl)amino]methyl}-1-(tetrahydro-2H-pyran-4-ylmethyl)-1H-imidazo[4,5-c]quinoline], the melting point was in the range of 142 to 144 °C.
The same measure for `CO/N=C/c1nc2c(N)nc(C)c(C)c2n1CC(C)C` [Example 14, 4-Amino-1-isobutyl-6,7-dimethyl-1H-imidazo[4,5-c]pyridine-2-carbaldehyde O-methyloxime]: 179 to 181 °C; for `CON(C)Cc1nc2c(N)nc3ccccc3c2n1CC1(O)CCC1` [Example 13, 1-[(4-Amino-2-{[methoxy(methyl)amino]methyl}-1H-imidazo[4,5-c]quinolin-1-yl)methyl]cyclobutanol]: 219 to 221 °C.
Under `CONCc1nc2c(N)nc3cc(OCc4ccccc4)ccc3c2n1CC1CCOCC1` [Example 6, 7-(Benzyloxy)-2-[(methoxyamino)methyl]-1-(tetrahydro-2H-pyran-4-ylmethyl)-1H-imidazo[4,5-c]quinolin-4-amine] stands 190 to 193 °C.
The same measure for `CONCc1nc2c(N)nc3ccccc3c2n1CC(C)(C)O` (as salt: hydrochloride) [Example 16, 1-(2-Hydroxy-2-methylpropyl)-2-{[methoxylamino]methyl}-1H-imidazo[4,5-c]quinolin-4-amine; hydrochloride]: 255 to 257 °C; for `CON(Cc1nc2c(N)nc3cc(OCc4ccccc4)ccc3c2n1CC1CCOCC1)S(C)(=O)=O` [Example 8, N-{[4-Amino-7-(benzyloxy)-1-(tetrahydro-2H-pyran-4-ylmethyl)-1H-imidazo[4,5-c]quinolin-2-yl]methyl}-N-methoxymethanesulfonamide]: 195 to 197 °C; for `CON(C)Cc1nc2c(N)nc(C)c(C)c2n1CC(C)C` [Example 10, 1-Isobutyl-2-{[methoxy(methyl)amino]methyl}-6,7-dimethyl-1H-imidazo[4,5-c]pyridin-4-amine]: 132 to 134 °C.
`CON(C)Cc1nc2c(N)nc3ccccc3c2n1CC(C)(C)O` [Example 15, 1-(2-Hydroxy-2-methylpropyl)-2-{[methoxy(methyl)amino]methyl}-1H-imidazo[4,5-c]quinolin-4-amine]: the melting point lay within 220 to 222 °C.
In turn, `CONCc1nc2c(N)nc3ccccc3c2n1CC1(O)CCC1` [Example 12, 1-({4-Amino-2-[(methoxyamino)methyl]-1H-imidazo[4,5-c]quinolin-1-yl}methyl)cyclobutanol] gave a melting point of 178 to 181 °C.
The same measure for `CON=Cc1nc2c(N)nc3ccccc3c2n1CC(C)C` [Example 4, 4-Amino-1-(2-methylpropyl)-1H-imidazo[4,5-c]quinoline-2-carbaldehyde O-methyloxime]: 181 to 183 °C.
On to `CON(C)Cc1nc2c(N)nc3ccccc3c2n1CC1CCOCC1` [Example 20, 2-{[Methoxy(methyl)amino]methyl}-1-(tetrahydro-2H-pyran-4-ylmethyl)-1H-imidazo[4,5-c]quinolin-4-amine], for which the melting point lay within 223 to 226 °C.
The same measure for `CON(Cc1nc2c(N)nc(C)c(C)c2n1CC(C)C)C(=O)C1CC1` [Example 11, N-[(4-Amino-1-isobutyl-6,7-dimethyl-1H-imidazo[4,5-c]pyridin-2-yl)methyl]-N-methoxycyclopropanecarboxamide]: 135 to 137 °C; for `CON(C)Cc1nc2c(N)nc3cc(OCc4ccccc4)ccc3c2n1CC1CCOCC1` [Example 7, 7-(Benzyloxy)-2-{[methoxy(methyl)amino]methyl}-1-(tetrahydro-2H-pyran-4-ylmethyl)-1H-imidazo[4,5-c]quinolin-4-amine]: 159 to 161 °C.
The same measure for `CONCc1nc2c(N)nc3ccccc3c2n1CC1CCOCC1` [Example 19, 2-[(Methoxyamino)methyl]-1-(tetrahydro-2H-pyran-4-ylmethyl)-1H-imidazo[4,5-c]quinolin-4-amine]: 169 to 171 °C; for `CONCc1nc2cnc3ccccc3c2n1CC1CCOCC1` [Example 17, 2-[(Methoxyamino)methyl]-1-(tetrahydro-2H-pyran-4-ylmethyl)-1H-imidazo[4,5-c]quinoline]: 58 to 63 °C; for `CONCc1nc2c(N)nc(C)c(C)c2n1CC(C)C` [Example 9, 1-Isobutyl-2-[(methoxyamino)methyl]-6,7-dimethyl-1H-imidazo[4,5-c]pyridin-4-amine]: 154 to 156 °C.
